Measurements published in patent US11806339B2, “Combination therapy of Axl inhibitor and EGFR tyrosine kinase inhibitor” (Daiichi Sankyo Company, Limited, priority 2017, dated 2023).
Structures can show the parent of a compound that is named as a salt.

Legend:
[1] = tested on: HCC827 cells; assay: In vivo effect of combined use of Compound A and osimertinib on subcutaneously transplanted HCC827 tumors (estimated tumor volume); design: species or system nude mouse;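 further: subcutaneous xenografts in female nude mice, tumor axes measured by caliper over time, volume as major axis × minor axis²/2, dosing from Day 1 five days weekly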
[2] = Change in body weight and general symptoms in HCC827 tumor-bearing mice
[3] = Day 0, Compound A 12.5 mg/kg, bid
[4] = Day 0, Compound A 25 mg/kg, bid
[5] = Day 0, Compound A 50 mg/kg, bid
[6] = Day 4, Compound A 12.5 mg/kg, bid
[7] = Day 4, Compound A 25 mg/kg, bid
[8] = Day 4, Compound A 50 mg/kg, bid
[9] = Day 7, Compound A 12.5 mg/kg, bid
[10] = Day 7, Compound A 25 mg/kg, bid
[11] = Day 7, Compound A 50 mg/kg, bid
[12] = Day 11, Compound A 12.5 mg/kg, bid
[13] = Day 11, Compound A 25 mg/kg, bid
[14] = Day 11, Compound A 50 mg/kg, bid
[15] = Day 14, Compound A 12.5 mg/kg, bid
[16] = Day 14, Compound A 25 mg/kg, bid
[17] = Day 14, Compound A 50 mg/kg, bid
[18] = Day 18, Compound A 12.5 mg/kg, bid
[19] = Day 18, Compound A 25 mg/kg, bid
[20] = Day 18, Compound A 50 mg/kg, bid
[21] = Day 21, Compound A 12.5 mg/kg, bid
[22] = Day 21, Compound A 25 mg/kg, bid
[23] = Day 21, Compound A 50 mg/kg, bid
[24] = Day 25, Compound A 12.5 mg/kg, bid
[25] = Day 25, Compound A 25 mg/kg, bid
[26] = Day 25, Compound A 50 mg/kg, bid
[27] = Day 28, Compound A 25 mg/kg, bid
[28] = Day 11, osimertinib 3 mg/kg, qd
[29] = Day 14, osimertinib 3 mg/kg, qd
[30] = Day 18, osimertinib 3 mg/kg, qd
[31] = Day 21, osimertinib 3 mg/kg, qd
[32] = Day 25, osimertinib 3 mg/kg, qd
[33] = Day 28, osimertinib 3 mg/kg, qd
[34] = Day 32, osimertinib 3 mg/kg, qd
[35] = Day 35, osimertinib 3 mg/kg, qd
[36] = Day 39, osimertinib 3 mg/kg, qd
[37] = Day 46, osimertinib 3 mg/kg, qd
[38] = Day 49, osimertinib 3 mg/kg, qd
[39] = Day 53, osimertinib 3 mg/kg, qd
[40] = Day 56, osimertinib 3 mg/kg, qd
[41] = Day 60, osimertinib 3 mg/kg, qd
[42] = Day 63, osimertinib 3 mg/kg, qd
[43] = Day 67, osimertinib 3 mg/kg, qd
[44] = Day 74, osimertinib 3 mg/kg, qd
[45] = Day 77, osimertinib 3 mg/kg, qd
[46] = Day 81, osimertinib 3 mg/kg, qd
[47] = Day 84, osimertinib 3 mg/kg, qd
[48] = Day 88, osimertinib 3 mg/kg, qd
[49] = Day 91, osimertinib 3 mg/kg, qd
[50] = Day 95, osimertinib 3 mg/kg, qd
[51] = Day 100, osimertinib 3 mg/kg, qd

COc1cc(-c2cnc(N)c(-c3ccc(NC(=O)c4cn(CC5CCOCC5)cc(-c5ccc(C)cn5)c4=O)cc3F)c2)ccc1OC[C@H]1COCCO1 [Compound A, N-[4-(2-amino-5-{4-[(2R)-1,4-dioxan-2-ylmethoxy]-3-methoxyphenyl}pyridin-3-yl)-3-fluorophenyl]-5-methyl-4′-oxo-1′-(tetrahydro-2H-pyran-4-ylmethyl)-1′,4′-dihydro-2,3′-bipyridine-5′-carboxamide sulfate hydrate]
Mean estimated tumor volume [1, 3]: 269.0 mm^3
Mean estimated tumor volume [1, 4]: 273.7 mm^3
Mean estimated tumor volume [1, 5]: 279.7 mm^3
Mean estimated tumor volume [1, 6]: 376.3 mm^3
Mean estimated tumor volume [1, 7]: 366.6 mm^3
Mean estimated tumor volume [1, 8]: 386.5 mm^3
Mean estimated tumor volume [1, 9]: 446.8 mm^3
Mean estimated tumor volume [1, 10]: 458.8 mm^3
Mean estimated tumor volume [1, 11]: 468.3 mm^3
Mean estimated tumor volume [1, 12]: 580.4 mm^3
Mean estimated tumor volume [1, 13]: 550.8 mm^3
Mean estimated tumor volume [1, 14]: 579.7 mm^3
Mean estimated tumor volume [1, 15]: 647.2 mm^3
Mean estimated tumor volume [1, 16]: 631.7 mm^3
Mean estimated tumor volume [1, 17]: 676.8 mm^3
Mean estimated tumor volume [1, 18]: 759.0 mm^3
Mean estimated tumor volume [1, 19]: 718.2 mm^3
Mean estimated tumor volume [1, 20]: 816.3 mm^3
Mean estimated tumor volume [1, 21]: 835.6 mm^3
Mean estimated tumor volume [1, 22]: 792.0 mm^3
Mean estimated tumor volume [1, 23]: 856.2 mm^3
Mean estimated tumor volume [1, 24]: 1013.6 mm^3
Mean estimated tumor volume [1, 25]: 939.4 mm^3
Mean estimated tumor volume [1, 26]: 1037.5 mm^3
Mean estimated tumor volume [1, 27]: 1097.1 mm^3
Mean change in body weight [2, 3]: 0.0%
Mean change in body weight [2, 4]: 0.0%
Mean change in body weight [2, 5]: 0.0%
Mean change in body weight [2, 6]: 1.3%
Mean change in body weight [2, 7]: 0.6%
Mean change in body weight [2, 8]: 0.9%
Mean change in body weight [2, 9]: 0.7%
Mean change in body weight [2, 10]: 1.8%
Mean change in body weight [2, 11]: 1.4%
Mean change in body weight [2, 12]: 1.2%
Mean change in body weight [2, 13]: 1.0%
Mean change in body weight [2, 14]: 2.9%
Mean change in body weight [2, 15]: 0.4%
Mean change in body weight [2, 16]: 0.0%
Mean change in body weight [2, 17]: 2.4%
Mean change in body weight [2, 18]: 3.6%
Mean change in body weight [2, 19]: 0.6%
Mean change in body weight [2, 20]: 3.6%
Mean change in body weight [2, 21]: 4.8%
Mean change in body weight [2, 22]: 3.1%
Mean change in body weight [2, 23]: 6.7%
Mean change in body weight [2, 24]: 4.4%
Mean change in body weight [2, 25]: 4.6%
Mean change in body weight [2, 26]: 5.1%
Mean change in body weight [2, 27]: 3.0%

C=CC(=O)Nc1cc(Nc2nccc(-c3cn(C)c4ccccc34)n2)c(OC)cc1N(C)CCN(C)C [osimertinib, N-(2-{[2-(dimethylamino)ethyl](methyl)amino}-4-methoxy-5-{[4-(1-methyl-1H-indol-3-yl)pyrimidin-2-yl]amino}phenyl)propen-2-amide]
Mean estimated tumor volume ([1]; Day 0, osimertinib 3 mg/kg, qd): 259.3 mm^3
Mean estimated tumor volume ([1]; Day 4, osimertinib 3 mg/kg, qd): 93.1 mm^3
Mean estimated tumor volume ([1]; Day 7, osimertinib 3 mg/kg, qd): 56.7 mm^3
Mean estimated tumor volume [1, 28]: 38.7 mm^3
Mean estimated tumor volume [1, 29]: 33.1 mm^3
Mean estimated tumor volume [1, 30]: 30.9 mm^3
Mean estimated tumor volume [1, 31]: 29.6 mm^3
Mean estimated tumor volume [1, 32]: 32.0 mm^3
Mean estimated tumor volume [1, 33]: 32.0 mm^3
Mean estimated tumor volume [1, 34]: 35.5 mm^3
Mean estimated tumor volume [1, 35]: 42.1 mm^3
Mean estimated tumor volume [1, 36]: 44.9 mm^3
Mean estimated tumor volume [1, 37]: 53.3 mm^3
Mean estimated tumor volume [1, 38]: 63.7 mm^3
Mean estimated tumor volume [1, 39]: 80.8 mm^3
Mean estimated tumor volume [1, 40]: 92.4 mm^3
Mean estimated tumor volume [1, 41]: 103.3 mm^3
Mean estimated tumor volume [1, 42]: 134.1 mm^3
Mean estimated tumor volume [1, 43]: 146.2 mm^3
Mean estimated tumor volume [1, 44]: 182.1 mm^3
Mean estimated tumor volume [1, 45]: 220.1 mm^3
Mean estimated tumor volume [1, 46]: 285.7 mm^3
Mean estimated tumor volume [1, 47]: 341.2 mm^3
Mean estimated tumor volume [1, 48]: 404.1 mm^3
Mean estimated tumor volume [1, 49]: 509.3 mm^3
Mean estimated tumor volume [1, 50]: 602.4 mm^3
Mean estimated tumor volume [1, 51]: 727.5 mm^3
Day at which the tumor became bigger than its size at the start of administration (acquired resistance) ([1]; mouse, in vivo, 3 mg/kg): 81 days
Effect on tumor immediately after administration ([1]; osimertinib administered alone, 3 mg/kg qd): tumor regression effect
Mean change in body weight ([2]; Day 0, osimertinib 3 mg/kg, qd): 0.0%
Mean change in body weight ([2]; Day 4, osimertinib 3 mg/kg, qd): 0.1%
Mean change in body weight ([2]; Day 7, osimertinib 3 mg/kg, qd): 1.0%
Mean change in body weight [2, 28]: 0.3%
Mean change in body weight [2, 29]: 1.1%
Mean change in body weight [2, 30]: 0.9%
Mean change in body weight [2, 31]: 2.7%
Mean change in body weight [2, 32]: 2.6%
Mean change in body weight [2, 33]: 1.1%
Mean change in body weight [2, 34]: 2.0%
Mean change in body weight [2, 35]: 3.1%
Mean change in body weight [2, 36]: 4.0%
Mean change in body weight ([2]; Day 42, osimertinib 3 mg/kg, qd): 3.2%
Mean change in body weight [2, 37]: 4.5%
Mean change in body weight [2, 38]: 5.0%
Mean change in body weight [2, 39]: 5.1%
Mean change in body weight [2, 40]: 5.3%
Mean change in body weight [2, 41]: 5.4%
Mean change in body weight [2, 42]: 5.7%
Mean change in body weight [2, 43]: 6.4%
Mean change in body weight ([2]; Day 70, osimertinib 3 mg/kg, qd): 5.7%
Mean change in body weight [2, 44]: 7.4%
Mean change in body weight [2, 45]: 6.6%
Mean change in body weight [2, 46]: 8.9%
Mean change in body weight [2, 47]: 8.0%
Mean change in body weight [2, 48]: 8.8%
Mean change in body weight [2, 49]: 9.6%
Mean change in body weight [2, 50]: 11.7%
Mean change in body weight ([2]; Day 98, osimertinib 3 mg/kg, qd): 11.2%
Mean change in body weight [2, 51]: 11.9%
